Measured values from patent US3975433A, “1-(2,4-Dimethoxy-phenyl)-3-(2-hydroxyethyl)thiourea” (The Dow Chemical Company, priority 1975, dated 1976).

How the values were obtained:
[1] = system: Ascaridia galli; assay: control of Ascaridia galli in chickens (anthelmintic efficacy); assay type: in vivo; settings: infected chickens; for activity in controlling Ascaridia: tested as controls, result in words, dose not separately stated
Procedure: The compound was evaluated for activity in the control of Ascaridia galli in chickens. The test chickens following infection with Ascaridia are held for at least 30 days to permit all worms to mature. The compound is evaluated for activity in two chickens which are caged together. The compound may be administered orally as a single oral dose or in the feed for four consecutive days. Anthelmintic efficacy of the compound against Ascaridia is determined by comparing the number of ascarids passed in the feces during the first 72 hours post treatment to the number of worms recovered at necropsy.
The following compounds were also tested as controls and found to have no activity in controlling Ascaridia: 1-(4-methoxyphenyl)-3-(2-hydroxyethyl)thiourea; 1-(2,4-dimethylphenyl)-3-(2-hydroxyethyl)thiourea; 1-(4-methylphenyl)-3-(2-hydroxyethyl)thiourea; and 1-(4-methoxy-2-methylphenyl)-3-(2-hydroxyethyl)thiourea.

[2] = system: reserpine-induced ptosis; assay: counteraction of reserpine-induced ptosis in mice (antidepressant properties); assay type: in vivo; settings: for inhibition of reserpine-induced ptosis: mice, 60 mg/kg (i.p.), comparative trials, result in words
Procedure: The antidepressant properties of the thiourea employed in the methods of the present invention are determined by measuring their ability to counteract ptosis induced in animals by the intraperitoneal injection of reserpine. Graded doses (from about 2.1 to about 100 mg/kg) of the active compounds of this invention are administered intraperitoneally to groups of five mice each, followed 30 minutes later by an intraperitoneal injection of reserpine in an amont which is known to induce ptosis in mice. Similar groups of control mice are administered only reserpine. Forty-five minutes after the administration of reserpine, the presence or absence of ptosis is noted. The percent inhibition of ptosis is noted and the median effective dose (ED50) of each test ingredient which protected 50% of the test mice from reserpine-induced ptosis was calculated.

| Compound | activity in controlling Ascaridia [1] | other results |
| --- | --- | --- |
| Cc1ccc(NC(=S)NCCO)c(C)c1 [1-(2,4-dimethylphenyl)-3-(2-hydroxyethyl)thiourea] | no activity |  |
| COc1ccccc1NC(=S)NCCO [1-(2-methoxyphenyl)-3-(2-hydroxyethyl)thiourea] |  | inhibition of reserpine-induced ptosis [2]: did not inhibit |
| COc1ccc(NC(=S)NCCO)cc1OC [1-(3,4-dimethoxyphenyl)-3-(2-hydroxyethyl)thiourea] |  | inhibition of reserpine-induced ptosis [2]: did not inhibit |
| COc1ccc(NC(=S)NCCO)c(C)c1 [1-(4-methoxy-2-methylphenyl)-3-(2-hydroxyethyl)thiourea] | no activity |  |
| COc1ccc(NC(=S)NCCO)cc1 [1-(4-methoxyphenyl)-3-(2-hydroxyethyl)thiourea] | no activity |  |
| Cc1ccc(NC(=S)NCCO)cc1 [1-(4-methylphenyl)-3-(2-hydroxyethyl)thiourea] | no activity |  |
| COc1ccc(NC(=S)NCCO)c(OC)c1 [Compound 1, 1-(2,4-dimethoxyphenyl)-3-(2-hydroxyethyl)thiourea] |  | activity (number of worms passed in the feces compared to those found at autopsy) ([1]; 150 mg/kg, feces during first 72 hours post treatment): 50% |
| CN(C)CCCN1c2ccccc2CCc2ccccc21 [Imipramine] |  | ED50 ([2]; Mus musculus, ip, read-out: ED50 (median effective dose which protected 50% of the test mice from reserpine-induced ptosis)): 15 mg/kg |
